Data reported in PMC8161015, “Antiplatelet Activity of Coumarins: In Vitro Assays on COX-1” (Molecules, 2021).

Target: T1, COX-1 (Homo sapiens, UniProt P23219)
T1 construct: gene PTGS1; pure human recombinant enzyme (h-COX-1)
Assay: colorimetric TMPD oxidation assay with purified human COX-1, arachidonic acid substrate
Assay type: biochemical

T1 sequence (P23219 24-599): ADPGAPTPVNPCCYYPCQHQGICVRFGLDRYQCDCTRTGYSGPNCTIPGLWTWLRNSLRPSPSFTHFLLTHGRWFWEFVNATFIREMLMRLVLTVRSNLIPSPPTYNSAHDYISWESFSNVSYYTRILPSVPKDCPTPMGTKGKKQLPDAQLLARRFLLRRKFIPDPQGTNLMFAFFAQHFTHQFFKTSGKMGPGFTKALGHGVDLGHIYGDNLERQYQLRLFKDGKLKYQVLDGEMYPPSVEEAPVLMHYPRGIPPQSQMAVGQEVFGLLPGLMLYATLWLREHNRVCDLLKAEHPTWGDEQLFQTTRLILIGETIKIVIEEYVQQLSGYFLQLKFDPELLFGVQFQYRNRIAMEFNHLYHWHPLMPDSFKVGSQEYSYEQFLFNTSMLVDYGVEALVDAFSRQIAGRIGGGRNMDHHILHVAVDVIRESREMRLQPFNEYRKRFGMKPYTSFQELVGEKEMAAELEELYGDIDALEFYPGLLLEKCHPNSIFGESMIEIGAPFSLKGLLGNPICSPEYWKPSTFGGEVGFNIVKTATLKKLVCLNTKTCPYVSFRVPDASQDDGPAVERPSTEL

Question: Which IC50 does the source give for `O=c1ccc2cc(O[C@@H]3O[C@H](CO)[C@@H](O)[C@H](O)[C@H]3O)c(O)cc2o1` [a, 7-hydroxy-6-[(2 S, 3 R, 4 S, 5 S, 6 R)-3,4,5-trihydroxy-6-(hydroxymethyl)oxane-2-yl] oxychromen-2-one] here?
Answer: 4.49 mM
